In the NIST ThermoML archive (doi:10.1016/j.jct.2011.12.025):

Test: xn = mol fraction of the nth substance listed
Details: 296.15 K, 101 kPa, Liquid, WTW LF538 Conductivity Meter

CCCCCCCCCCn1cc[n+](C)c1.F[B-](F)(F)F [1-decyl-3-methylimidazolium tetrafluoroborate] + O
Details	electrical conductivity [S/m]
x1 = 2.5e-05	0.018
x1 = 3.8e-05	0.026
x1 = 5.1e-05	0.034
x1 = 6.4e-05	0.042
x1 = 7.6e-05	0.049
x1 = 8.9e-05	0.056
x1 = 0.000102	0.063
x1 = 0.000115	0.07
x1 = 0.000128	0.076
x1 = 0.000139	0.082
x1 = 0.000153	0.089
x1 = 0.000166	0.096
x1 = 0.000179	0.101
x1 = 0.000204	0.113
x1 = 0.00023	0.125
x1 = 0.000256	0.137

CCCCCCn1cc[n+](C)c1.F[B-](F)(F)F [1-hexyl-3-methylimidazolium tetrafluoroborate] + O
Details	electrical conductivity [S/m]
x1 = 0.000466	0.231
x1 = 0.000711	0.329
x1 = 0.000949	0.419
x1 = 0.001193	0.505
x1 = 0.001435	0.584
x1 = 0.001677	0.663
x1 = 0.001925	0.74
x1 = 0.002172	0.812
x1 = 0.002421	0.875
x1 = 0.002671	0.949
x1 = 0.002925	1.014
x1 = 0.003177	1.07
x1 = 0.003433	1.126
x1 = 0.003948	1.25
x1 = 0.004469	1.36
x1 = 0.005	1.447

CCCCCCCC[n+]1ccn(C)c1.F[B-](F)(F)F [1-methyl-3-octylimidazolium tetrafluoroborate] + O
Details	electrical conductivity [S/m]
x1 = 0.000109	0.067
x1 = 0.000164	0.095
x1 = 0.000219	0.123
x1 = 0.000274	0.149
x1 = 0.000326	0.172
x1 = 0.000384	0.196
x1 = 0.000439	0.22
x1 = 0.000494	0.24
x1 = 0.000549	0.262
x1 = 0.000605	0.284
x1 = 0.00066	0.305
x1 = 0.000715	0.326
x1 = 0.000772	0.346
x1 = 0.000883	0.386
x1 = 0.000995	0.424
x1 = 0.001107	0.463
